According to US20090192169A1, “Bicyclic Benzimidazole Compounds and Their Use as Metabotropic Glutamate Receptor Potentiators” (priority 2006, published 2009):

molecular target: T1, human mGluR2 (Homo sapiens, UniProt Q14416); assay: [35S]-GTPγS binding assay of mGluR2 receptor activation (allosteric activator activity); assay type: biochemical; conditions: membranes from CHO cells stably expressing human mGluR2; in presence of 1 μM glutamate
T1 construct: expressed in transfected cells
Protocol: A [^35S]-GTPγS binding assay was used to functionally assay mGluR2 receptor activation. The allosteric activator activity of compounds at the human mGluR2 receptor was measured using a [^35S]-GTPγS binding assay with membranes prepared from CHO cells which stably express the human mGluR2. The assay is based upon the principle that agonists bind to G-protein coupled receptors to stimulate GDP-GTP exchange at the G-protein. Since [^35S]-GTPγS is a non-hydrolysable GTP analog, it can be used to provide an index of GDP-GTP exchange and, thus, receptor activation. The GTPγS binding assay therefore provides a quantitative measure of receptor activation.
Membranes were prepared from CHO cells stably transfected with human mGluR2. Membranes (30 μg protein) were incubated with test compound (3 nM to 300 μM) for 15 minutes at room temperature prior to the addition of 1 μM glutamate, and incubated for 30 min at 30° C. in 500 μl assay buffer (20 mM HEPES, 100 mM NaCl, 10 mM MgCl2), containing 30 μM GDP and 0.1 nM [^35S]-GTPγS (1250 Ci/mmol). Reactions were carried out in triplicate in 2 ml polypropylene 96-well plates. Reactions were terminated by vacuum filtration using a Packard 96-well harvester and Unifilter-96, GF/B filter microplates. The filter plates were washed 4×1.5 ml with ice-cold wash buffer ([…] sodium phosphate buffer, pH 7.4). The filter plates were dried and 35 μl of scintillation fluid (Microscint 20) was added to each well. The amount of radioactivity bound was determined by counting plates on the Packard TopCount. Data was analyzed using GraphPad Prism, and EC50 and Emax values (relative to the maximum glutamate effect) were calculated using non-linear regression.

T1 sequence (Q14416 19-872): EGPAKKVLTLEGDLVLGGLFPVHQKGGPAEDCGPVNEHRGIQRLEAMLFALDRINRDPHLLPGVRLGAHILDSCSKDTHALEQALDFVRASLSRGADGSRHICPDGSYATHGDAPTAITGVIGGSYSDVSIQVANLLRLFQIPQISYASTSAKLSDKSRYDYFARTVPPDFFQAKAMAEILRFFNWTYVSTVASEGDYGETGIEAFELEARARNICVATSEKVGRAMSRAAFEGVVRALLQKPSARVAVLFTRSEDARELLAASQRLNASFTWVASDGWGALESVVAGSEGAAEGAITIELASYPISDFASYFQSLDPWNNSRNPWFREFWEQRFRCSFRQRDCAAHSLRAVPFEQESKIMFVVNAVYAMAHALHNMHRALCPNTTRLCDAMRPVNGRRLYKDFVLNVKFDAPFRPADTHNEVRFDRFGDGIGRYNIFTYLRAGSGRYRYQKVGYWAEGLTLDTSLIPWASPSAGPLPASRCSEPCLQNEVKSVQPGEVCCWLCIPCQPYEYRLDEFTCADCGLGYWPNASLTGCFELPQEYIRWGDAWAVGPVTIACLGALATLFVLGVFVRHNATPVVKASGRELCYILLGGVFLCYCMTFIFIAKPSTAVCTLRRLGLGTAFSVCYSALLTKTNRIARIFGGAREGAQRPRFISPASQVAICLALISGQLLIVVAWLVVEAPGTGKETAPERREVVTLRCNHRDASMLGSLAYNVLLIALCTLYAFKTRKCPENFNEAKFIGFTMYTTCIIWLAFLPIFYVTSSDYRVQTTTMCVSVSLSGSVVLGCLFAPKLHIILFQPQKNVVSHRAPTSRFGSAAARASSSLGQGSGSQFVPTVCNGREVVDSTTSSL

Row | Structure (SMILES) | EC50 [nM]
1 | Cc1cccc2nc(CN3CCC(CCOc4ccc(F)c(F)c4)CC3)n(C)c12 [Example 1.2, 2-{4-[2-(3,4-Difluoro-phenoxy)-ethyl]-piperidin-1-ylmethyl}-1,7-dimethyl-1H-benzoimidazole] | 57
2 | Cc1cccc2nc(CN3CCC(c4ccc(F)cc4)CC3)n(C)c12 [Example 1.49, 2-[4-(4-Fluoro-phenyl)-piperidin-1-ylmethyl]-1,7-dimethyl-1H-benzoimidazole] | 79.5
3 | CCn1c(CN2CCC(c3ccccc3)(c3ccccc3)CC2)nc2ccccc21 [Example 1.54, 2-(4,4-Diphenyl-piperidin-1-ylmethyl)-1-ethyl-1H-benzoimidazole] | 1040
4 | Cn1c(CN2CCC(O)(c3ccc(Cl)cc3)CC2)nc2ccccc21 [Example 1.75, 4-(4-Chloro-phenyl)-1-(1-methyl-1H-benzoimidazol-2-ylmethyl)-piperidin-4-ol] | 8610
5 | Cn1c(CN2CCN(c3ccc(Cl)c(Cl)c3)CC2)nc2ccccc21 [Example 26.8, 2-[4-(3,4-Dichloro-phenyl)-piperazin-1-ylmethyl]-1-methyl-1H-benzoimidazole] | 187
